Results taken from US20240300886A1, “ARYLCYCLOHEXYLAMINE DERIVATIVES AND THEIR USE IN THE TREATMENT OF PSYCHIATRIC DISORDERS” (GILGAMESH PHARMACEUTICALS, INC., priority 2021, published 2024).

Columns and labels:
[1] = biological target: MK-801 binding site of the N-methyl-D-aspartate receptor (NMDAR); assay: NMDA receptor radioligand binding with [3H]MK-801; set-up: species or system Wistar rat; details: [3H]MK-801 displacement, Wistar rat brain (minus cerebellum); read-out: NMDAR Ki (95% CI)
Procedure: The binding affinities of disclosed compounds at the MK-801 binding site of the N-methyl-D-aspartate receptor (NMDAR) were determined in radioligand binding experiments (Table 13).
Radioligand Binding. Affinity of the test compounds for NMDAR was determined in radioligand binding experiments with [^3H]MK-801 by Eurofins Panlabs, Inc., using methods adapted from the literature (Javitt el al. 1987; Reynolds et al. 1989) and under the conditions described in Table 14.

[2] = Metabolic stability in rat liver microsomes (RLM); type: in vitro ADME, Sprague Dawley rats; details: male, Sprague Dawley, rat, pooled rat liver microsomes, pH 7.4, 1 μM compound, 0.50 mg protein/mL, NADPH
Procedure: (§1) RLM Stability. Pooled RLM from male Sprague Dawley rats (XenoTech R1000) were used. Microsomal incubations were carried out in multi-well plates. Liver microsomal incubation medium consisted of PBS (100 mM, pH 7.4), MgCl2 (1 mM), and NADPH (1 mM), with 0.50 mg of liver microsomal protein per mL. Control incubations were performed by replacing the NADPH-cofactor system with PBS. Test compounds (1 μM, final solvent concentration 1.0%) were incubated with microsomes at 37° C. with constant shaking. Six time points over 60 minutes were analyzed, with 60 μL aliquots of the reaction mixture being drawn at each time point. The reaction aliquots were stopped by adding 180 μL of cold (4° C.) acetonitrile containing 200 ng/mL tolbutamide and 200 ng/mL labetalol as internal standards (IS), followed by shaking for 10 minutes, and then protein sedimentation by centrifugation at 4,000 rpm for 20 minutes at 4° C. Supernatant samples (80 μL) were diluted with water (240 μL) and analyzed for parent compound remaining using a fit-for-purpose liquid chromatography-tandem mass spectrometry (LC-MS/MS) method.
(§2) Data Analysis. The elimination constant (kel), half-life (t1/2) and intrinsic clearance (Clint) were determined in a plot of […] versus time, using linear regression analysis.

[3] = Metabolic stability in mouse liver microsomes (MLM); type: in vitro ADME, CD-1 mice; details: male, CD-1, mouse, pooled mouse liver microsomes, pH 7.4, 1 μM compound, 0.50 mg protein/mL, NADPH
Procedure: as §1, with “MLM” for “RLM”, “CD-1 mice” for “Sprague Dawley rats”, “M1000)” for “R1000)”
Data Analysis. The elimination constant (kel), half-life (t1/2) and intrinsic clearance (Clint) were determined in a plot of ln(AUC) versus […], using linear regression analysis.

[4] = Metabolic stability in dog liver microsomes (DLM); type: in vitro ADME, beagle dogs; details: male, beagle, dog, pooled dog liver microsomes, pH 7.4, 1 μM compound, 0.50 mg protein/mL, NADPH
Procedure: as §1, with “DLM” for “RLM”, “beagle dogs” for “Sprague Dawley rats”, “D1000)” for “R1000)”, “([…]),” for “(IS),”
as §2

[5] = Metabolic stability in cynomolgus monkey liver microsomes (CLM); type: in vitro ADME, cynomolgus monkeys; details: male, cynomolgus monkey, pooled cynomolgus monkey liver microsomes, pH 7.4, 1 μM compound, 0.50 mg protein/mL, NADPH
Procedure: as §1, with “CLM” for “RLM”, “cynomolgus monkeys (Corning 452413)” for “Sprague Dawley rats (XenoTech R1000)”
as §2

[6] = Metabolic stability in human liver microsomes (HLM); type: in vitro ADME; details: 0.50 mg protein/mL, NADPH
Procedure: HLM Stability. Pooled HLM from adult male and female donors (Corning 452117) were used. Microsomal incubations were carried out in multi-well plates. Liver microsomal incubation medium consisted of PBS (100 mM, pH 7.4), MgCl2 (1 mM), and NADPH ([…]), with 0.50 mg of liver microsomal protein per mL. Control incubations were performed by replacing the NADPH-cofactor system with PBS. Test compounds (1 μM, final solvent concentration 1.0%) were incubated with microsomes at 37° C. with constant shaking, Six time points over 60 minutes were analyzed, with 60 μL aliquots of the reaction mixture being drawn at each time point. The reaction aliquots were stopped by adding 180 μL of cold (4° C.) acetonitrile containing 200 ng/mL tolbutamide and 200 ng/mL labetalol as internal standards (IS), followed by shaking for 10 minutes, and then protein sedimentation by centrifugation at 4,000 rpm for 20 minutes at 4° C. Supernatant samples (80 μL) were diluted with water (240 μL) and analyzed for parent compound remaining using a fit-for-purpose liquid chromatography-tandem mass spectrometry (LC-MS/MS) method.
as §2

[7] = biological target: serotonin transporter (SERT) (Homo sapiens (Human), UniProt P31645); assay: SERT fluorescent substrate uptake inhibition in transfected cells; type: cell-based; details: stably transfected cells expressing SERT
Procedure: The ability of disclosed compounds to inhibit uptake of monoamines by the serotonin transporter (SERT) was measured using a fluorescent substrate uptake assay in transfected cells (Table 15). […] Considering that inhibitors of SERT are well known to have antidepressant and anxiolytic effects and are among the most commonly prescribed drugs for mood disorders (e.g. fluoxetine, sertraline, etc.), blockade of SERT by certain compounds of the present disclosure is expected to synergize with their NMDAR inhibition to increase therapeutic activity for treating depression and related disorders. […] Further, the ability to tune the ratio between SERT and NMDAR is useful to obtain the optimal therapeutic profile depending on the intended clinical indication.
Uptake Inhibition. The ability of test compounds to block monoamine uptake by SERT was determined using the Neurotransmitter Transporter Uptake Assay Kit manufactured by Molecular Devices (Cat #R8173). Briefly, stably transfected cells expressing SERT were grown and plated into 384-well plates at a concentration of 20,000 cells per well. Plates were then incubated for 16-20 h at 37° C. and 5% CO2. The medium was then aspirated and replaced with 25 μL of assay buffer (20 mM HEPES in HBSS, containing 0.1% BSA) containing the test compounds at the appropriate concentrations. Plates were then centrifuged at 300 rpm for 15 s and then incubated at 37° C. for 30 minutes. At this time, 25 μL of the proprietary fluorescent dye solution was added, the plates were incubated at 37° C. for 60 minutes, and then fluorescence was quantified on a plate reader (excitation wavelength=440 nm, emission wavelength=520 nm). The proprietary dye solution contains a mixture of 1) a fluorescent dye that mimics the endogenous substrate of SERT and is thereby actively transported to the intracellular compartment in the absence of an inhibitor and 2) a masking dye that inhibits the fluorescence of dye 1 in the extracellular compartment. Therefore, the overall fluorescence of the system increases as the fluorescent dye is transported into the cells.

SMILES	Ki [1] [nM]	half-life at 1 μM [2] [h]	microsomal CLint at 1 μM [2] [µL/min/mg]	half-life at 1 μM [3] [h]	microsomal CLint at 1 μM [3] [µL/min/mg]	half-life at 1 μM [4] [h]	microsomal CLint at 1 μM [4] [µL/min/mg]	half-life at 1 μM [5] [h]	microsomal CLint at 1 μM [5] [µL/min/mg]	Clint ([6]; 1 μM compound) [μL/min/m]	half-life at 1 μM ([6]; both sexes, human, pooled human liver microsomes, pH 7.4, 1 μM compound) [h]	inhibition at 10 µM [7] [%]
CN[C@@]1(c2ccccc2Cl)CCCCC1=O [(R)-ketamine, reference compound]	2200											
CN[C@]1(c2ccccc2Cl)CCCCC1=O [(S)-ketamine, reference compound]	700											
N[C@@]1(c2cccc(F)c2)CCCCC1=O [Compound 3R, (R)-2-amino-2-(3-fluorophenyl)cyclohexan-1-one]		> 2.42	< 9.6	2	11.6	0.667	34.6	1.85	12.5	<9.6	> 2.42	1.75
